Results: patent publication US9234186B2, “Star-worm luciferase” (OLYMPUS CORPORATION, priority 2011, dated 2016)
Read-outs that look alike come from different tables or passages of the source.

How the values were obtained:
[1] = system: CBR luciferase derived from click beetle; assay: Km determination for known luciferase CBR (luminescence kinetics); assay type: biochemical; conditions: 0.1 M Tris-HCl pH 8.0; enzyme solution with 1 mM D-luciferin, 8 mM MgSO4; read-out: Km for ATP
[2] = system: Diplocladon sp. 1 star-worm luciferase, wild type, SEQ ID NO: 1; assay: Km determination for star-worm luciferase (luminescence kinetics); assay type: biochemical; conditions: 0.1 M Tris-HCl pH 8.0, 8 mM MgSO4
Experimental: The measurements were carried out ten times for each sample, and the average of absorbance was used for the calculation.
A solution of 0.1 M Tris-HCl (pH 8.0) containing each purified luciferase, 4 mM of ATP, and 8 mM of MgSO4 was connected to the standard pump of a luminometer, and measurement was carried out at the same time of adding 50 μl of the solution to the well. A Luminescensor (ATTO) was used for the measurement. Measurement was repeated three times for each luciferin concentration.
The peak intensity of the obtained photon count value was plotted with respect to luciferin concentration S, defining the initial rate as V. The plots were subjected to curve fitting of Michaelis Menten type, thereby giving Km values. The curve fitting was performed by a nonlinear least-squares method, and search of parameter was performed by a Newton method.
Measurement of Km Value with Respect to ATP
Under various ATP concentrations, the luminous intensity of the obtained luciferase was measured. Based on the results, Km values was determined with respect to ATP.
Various eight types of ATP solutions were prepared by adding ATP to 0.1 M Tris-HCl (pH 8.0). These solutions contain ATP at final concentration of 10, 20, 40, 80, 160, 320, 480, or 640 μM. These ATP solutions were each injected into a 96-well microplate at a volume of 50 μl. […]

HeLa cell = assay: Luminous intensity expressed in HeLa cell, star-worm luciferase vs P. pyralis luciferase (Example 3); assay type: cell-based; conditions: 2 mM D-luciferin, 25° C., 90 minutes, normalised to sea pansy luciferase internal control, codon-optimized gene with Kozak sequence
Experimental: The luminous intensities when expressed in a HeLa cell were compared between a star-worm luciferase and P. pyralis luciferase.
Regarding a star-worm luciferase, Kozak sequence was added to a nucleic acid optimized for expression in a mammalian cell and then inserted into between SgfI site and PmeI site of a multicloning site of pF9A CMV hRLuc neo Flexi vector (Promega). According to addition of Kozak sequence, an amino acid encoded by the codon immediately after initiation codon, proline, was changed to alanine. […] For the purpose of comparison, Kozak sequence was added to a known P. pyralis nucleic acid containing an optimized gene for expression in a mammalian cell, and then inserted into apF9A CMV hRLuc neo Flexi vector in a similar manner.
Each of the two types of plasmids obtained by the aforementioned manner was introduced into HeLa cells by means of lipofection method, and 24 hours later the cells were washed with PBS. […] According to the figure, the star-worm luciferase induced luminescence having 1.5 times the luminous intensity in a HeLa cell of that induced by P. Pyralis luciferase.

Nc1ncnc2c1ncn2[C@@H]1O[C@H](COP(=O)(O)OP(=O)(O)OP(=O)(O)O)[C@@H](O)[C@H]1O [ATP, Adenosine triphosphate]
Km [1]: 47 µM | Km ([2]; enzyme solution with 1 mM D-luciferin, read-out: Km for ATP): 110 µM

O=C(O)[C@H]1CSC(c2nc3ccc(O)cc3s2)=N1 [D-luciferin]
Km ([2]; read-out: Km for D-luciferin, enzyme solution with 4 mM ATP): 38.9 µM

B1: star-worm luciferase: Novel luciferase cloned from star-worm Diplocladon sp. 1, amino acid sequence SEQ ID NO: 1 (protein, listed as Diplocladon sp.)
chain: MPNEIVLHGAKPRDPLDLGTAGSQLFRSLTQFSYLREALVDAHTEQVVSYADILENSCRLAICFEKYGLRQNSVIAVCSENSAIFFYPVIAALYMGIITATVNDNYTERELFDTLNISKPELVFCSKKAIKNLTQLKNHIDFIKKLVVLDSDEDIGEVESLANFMKRYSESVIDVRNFKPRDFDAKEQVALIMSSSGTTGLPKGVVLTHRNLSVRFVHCKDPLFGTRTVPSTSILSIVPFHHAFGMFTTLSYFIVGLRVILLKRFEEEFFLSTIEKYRIPTIVLAPPVMVFLAKSPLVDQYDVSSIREVATGGAPVGIEVAEAVAKRLKINGILQGYGLTETCCAVLITPHDHVKTGSTGKVAPYVQAKVVDLSTGKSLGPNKRGELCFKSEIIMKGYFNNIKATEEAIDKEGWLHSGDVGYYDEDGHFYVVDRLKELIKYKGYQVAPAELEWLLLQHPAIKDAGVTGVPDEAAGELPGACIVLEEGHSLTEQEVIEYVAERVSPTKRIRGGVVFVDDIPKGATGKLVRSELRRMLSQKKSKL
luminous intensity relative to that induced by P. pyralis firefly luciferase (HeLa cell): 1.5 times
